Data from patent US7402548B2, “Benzoxazole compounds, process for producing the same and herbicides” (Kyoyu Agri Co., Ltd., priority 2000, dated 2008).

What was measured:
[1] = test system: barnyard grass; assay: Herbicidal test for paddy field; format: in vivo, Eschinochloa crusgalli; settings: 500 g/ha, dropwise addition to paddy water at 1.5 leaf stage of barnyard grass; glass house 25° C., 3 weeks; rank 0-5 vs non-treated district
Method: (§1) Wagner pots, each having an area of 1/5000 are, were packed with Ube soil (alluvial soil) and planted with seeds or tubers of young rice plant, barnyard grass, bulrush, Cyperus serotinus Rottb., arrowhead and monochoria. Then, the pots were filled with water to a depth of 3 cm.
(§2) Each wettable powder of the desired Compounds (I) shown in Tables 1 to 21, 24, 25, 28 and 29 prepared in accordance with Example 2 was diluted with water containing a surfactant (0.05%) and subjected to dropwise addition treatment by using pipet so that an effective concentration of the compound (I) in each herbicide became 500 g/ha at 1.5 leaf stage of barnyard grass.
(§3) These plants were controlled in a glass house at an average temperature of 25° C. for 3 weeks, and then herbicidal effects thereof were investigated.
(§4) The herbicidal effects are evaluated according to the following 6 ranks as compared with non-treated district. (0: normal development, 1: Less damaged, 2: Slightly damaged, 3: Moderately damaged, 4: Severely damaged, 5: All killed). Incidentally, “-” in the column means not investigated.

[2] = test system: bulrush; assay: Herbicidal test for paddy field; format: in vivo, Scrips juncoides; settings: 500 g/ha, dropwise addition to paddy water at 1.5 leaf stage of barnyard grass; glass house 25° C., 3 weeks; rank 0-5 vs non-treated district
Method: as §1, §2, §3, §4

[3] = test system: Cyperus serotinus Rottb.; assay: Herbicidal test for paddy field; format: in vivo; settings: 500 g/ha, dropwise addition to paddy water at 1.5 leaf stage of barnyard grass; glass house 25° C., 3 weeks; rank 0-5 vs non-treated district
Method: as §1, §2, §3, §4

[4] = test system: corn; assay: Soil treatment test for upland field; format: in vivo; parameters: key: 0 = normal development, 5 = all killed; settings: 500 g/ha, 3 weeks, glass house 25° C.
Summary of the method: (§5)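 Pre-emergence: seeds sown in alluvial Ube soil, wettable powder diluted in water with 0.05% surfactant sprayed on soil surface at 500 g/ha. Plants held in glasshouse at 25° C average for 3 weeks. Damage scored 0 (normal) to 5 (all killed) versus untreated.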

[5] = test system: solgum; assay: Soil treatment test for upland field; format: in vivo; parameters: key: 0 = normal development, 5 = all killed; settings: 500 g/ha, 3 weeks, glass house 25° C.
Summary of the method: as §5

[6] = test system: soybean; assay: Soil treatment test for upland field; format: in vivo; parameters: key: 0 = normal development, 5 = all killed; settings: 500 g/ha, 3 weeks, glass house 25° C.
Summary of the method: as §5

[7] = test system: sugar beat; assay: Soil treatment test for upland field; format: in vivo; parameters: key: 0 = normal development, 5 = all killed; settings: 500 g/ha, 3 weeks, glass house 25° C.
Summary of the method: as §5

[8] = test system: wheat; assay: Soil treatment test for upland field; format: in vivo; parameters: key: 0 = normal development, 5 = all killed; settings: 500 g/ha, 3 weeks, glass house 25° C.
Summary of the method: as §5

[9] = test system: Large crabgrass; assay: Soil treatment test for upland field; format: in vivo, Digitaria adscendens; parameters: key: 0 = normal development, 5 = all killed; settings: 500 g/ha, 3 weeks, glass house 25° C.
Summary of the method: as §5

[10] = test system: barnyard grass; assay: Soil treatment test for upland field; format: in vivo, Eschinochloa crusgalli; parameters: key: 0 = normal development, 5 = all killed; settings: 500 g/ha, 3 weeks, glass house 25° C.
Summary of the method: as §5

[11] = test system: green foxtail; assay: Soil treatment test for upland field; format: in vivo, Setaria viridis; parameters: key: 0 = normal development, 5 = all killed; settings: 500 g/ha, 3 weeks, glass house 25° C.
Summary of the method: as §5

[12] = test system: blackgrass; assay: Soil treatment test for upland field; format: in vivo, Alopecurus aegualis; parameters: key: 0 = normal development, 5 = all killed; settings: 500 g/ha, 3 weeks, glass house 25° C.
Summary of the method: as §5

[13] = test system: annual bluegrass; assay: Soil treatment test for upland field; format: in vivo, Poa annua; parameters: key: 0 = normal development, 5 = all killed; settings: 500 g/ha, 3 weeks, glass house 25° C.
Summary of the method: as §5

[14] = test system: common lambsquarters; assay: Soil treatment test for upland field; format: in vivo, Chenopodium album; parameters: key: 0 = normal development, 5 = all killed; settings: 500 g/ha, 3 weeks, glass house 25° C.
Summary of the method: as §5

[15] = test system: livid amaranth; assay: Soil treatment test for upland field; format: in vivo, Amaranthus lividus; parameters: key: 0 = normal development, 5 = all killed; settings: 500 g/ha, 3 weeks, glass house 25° C.
Summary of the method: as §5

[16] = test system: velvetleaf; assay: Soil treatment test for upland field; format: in vivo, Abutilon theophrasti; parameters: key: 0 = normal development, 5 = all killed; settings: 500 g/ha, 3 weeks, glass house 25° C.
Summary of the method: as §5

[17] = test system: morning glory; assay: Soil treatment test for upland field; format: in vivo, Ipomoea spps.; parameters: key: 0 = normal development, 5 = all killed; settings: 500 g/ha, 3 weeks, glass house 25° C.
Summary of the method: as §5

[18] = test system: corn; assay: Foliar spread test for upland field; format: in vivo; parameters: key: 0 = normal development, 5 = all killed (6 ranks vs. untreated); settings: foliar spray, 500 ppm, 3 weeks, glass house 25° C.
Summary of the method: (§6)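 Seeds were sown in volcanic ash soil in Wagner pots and grown about 2 weeks in a glass house at an average 25° C. Wettable-powder formulations diluted to 500 ppm in water with 0.5% surfactant were sprayed uniformly over the plants. After 3 further weeks at 25° C, damage was scored 0 (normal) to 5 (all killed) against untreated plants.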

[19] = test system: cotton; assay: Foliar spread test for upland field; format: in vivo; parameters: key: 0 = normal development, 5 = all killed (6 ranks vs. untreated); settings: foliar spray, 500 ppm, 3 weeks, glass house 25° C.
Summary of the method: as §6

[20] = test system: solgum; assay: Foliar spread test for upland field; format: in vivo; parameters: key: 0 = normal development, 5 = all killed (6 ranks vs. untreated); settings: foliar spray, 500 ppm, 3 weeks, glass house 25° C.
Summary of the method: as §6

[21] = test system: soybean; assay: Foliar spread test for upland field; format: in vivo; parameters: key: 0 = normal development, 5 = all killed (6 ranks vs. untreated); settings: foliar spray, 500 ppm, 3 weeks, glass house 25° C.
Summary of the method: as §6

[22] = test system: sugar beat; assay: Foliar spread test for upland field; format: in vivo; parameters: key: 0 = normal development, 5 = all killed (6 ranks vs. untreated); settings: foliar spray, 500 ppm, 3 weeks, glass house 25° C.
Summary of the method: as §6

[23] = test system: wheat; assay: Foliar spread test for upland field; format: in vivo; parameters: key: 0 = normal development, 5 = all killed (6 ranks vs. untreated); settings: foliar spray, 500 ppm, 3 weeks, glass house 25° C.
Summary of the method: as §6

[24] = test system: Large crabgrass; assay: Foliar spread test for upland field; format: in vivo, Digitaria adscendens; parameters: key: 0 = normal development, 5 = all killed (6 ranks vs. untreated); settings: foliar spray, 500 ppm, 3 weeks, glass house 25° C.
Summary of the method: as §6

[25] = test system: barnyardgrjass; assay: Foliar spread test for upland field; format: in vivo, Eschinochloa crusgalli; parameters: key: 0 = normal development, 5 = all killed (6 ranks vs. untreated); settings: foliar spray, 500 ppm, 3 weeks, glass house 25° C.
Summary of the method: as §6

[26] = test system: green foxtail; assay: Foliar spread test for upland field; format: in vivo, Setaria viridis; parameters: key: 0 = normal development, 5 = all killed (6 ranks vs. untreated); settings: foliar spray, 500 ppm, 3 weeks, glass house 25° C.
Summary of the method: as §6

[27] = test system: blackgrass; assay: Foliar spread test for upland field; format: in vivo, Alopecurus aegualis; parameters: key: 0 = normal development, 5 = all killed (6 ranks vs. untreated); settings: foliar spray, 500 ppm, 3 weeks, glass house 25° C.
Summary of the method: as §6

[28] = test system: annual bluegrass; assay: Foliar spread test for upland field; format: in vivo, Poa annua; parameters: key: 0 = normal development, 5 = all killed (6 ranks vs. untreated); settings: foliar spray, 500 ppm, 3 weeks, glass house 25° C.
Summary of the method: as §6

[29] = test system: common lambsquarters; assay: Foliar spread test for upland field; format: in vivo, Chenopodium album; parameters: key: 0 = normal development, 5 = all killed (6 ranks vs. untreated); settings: foliar spray, 500 ppm, 3 weeks, glass house 25° C.
Summary of the method: as §6

[30] = test system: livid amaranth; assay: Foliar spread test for upland field; format: in vivo, Amaranthus lividus; parameters: key: 0 = normal development, 5 = all killed (6 ranks vs. untreated); settings: foliar spray, 500 ppm, 3 weeks, glass house 25° C.
Summary of the method: as §6

[31] = test system: velvetleaf; assay: Foliar spread test for upland field; format: in vivo, Abutilon theophrasti; parameters: key: 0 = normal development, 5 = all killed (6 ranks vs. untreated); settings: foliar spray, 500 ppm, 3 weeks, glass house 25° C.
Summary of the method: as §6

[32] = test system: morning glory; assay: Foliar spread test for upland field; format: in vivo, Ipomoea spps.; parameters: key: 0 = normal development, 5 = all killed (6 ranks vs. untreated); settings: foliar spray, 500 ppm, 3 weeks, glass house 25° C.
Summary of the method: as §6

SMILES | Effects Barnyardgrass [1] | Effects Bulrush [2] | Effects Corn [4] | Effects Solgum [5] | Effects Sugar beat [7] | Effects Wheat [8] | Effects Large crabgrass [9] | Effects Barnyardgrass [10] | Effects Green foxtail [11] | Effects Blackgrass [12] | Effects Annual bluegrass [13] | Effects Common lambsquarters [14] | Effects Livid amaranth [15] | Effects Velvetleaf [16] | Effects Morning glory [17] | Effects Corn [18] | Effects Sotton [19] | Effects Solgum [20] | Effects Soybean [21] | Effects Sugar beat [22] | further results
CCC(=Cc1cccc(C(F)(F)F)c1)c1nc2cc(C#N)ccc2o1 [I-c-81] | 5 | 5 | 2 | 2 | 5 | 3 | 5 | 5 | 5 | 5 | 5 | 5 | 5 | 5 | 5 | 3 | 4 | 3 | 5 | 4 | Effects Cyperus serotinus Rottb. [3]: 4; Effects Soybean [6]: 3; Effects Wheat [23]: 2; Effects Large crabgrass [24]: 4; Effects Barnyardgrass [25]: 3; Effects Green foxtail [26]: 4; Effects Blackgrass [27]: 3; Effects Annual bluegrass [28]: 4; Effects Common lambsquarters [29]: 5; Effects Livid amaranth [30]: 5; Effects Velvetleaf [31]: 3; Effects Morning glory [32]: 5
CCCC(=Cc1cccc(C(F)(F)F)c1)c1nc2cc(C#N)c(Cl)cc2o1 [I-c-145] | 4 | 3 | 0 | 1 | 5 | 1 | 5 | 4 | 5 | 5 | 5 | 5 | 5 | 5 | 5 | 2 | 4 | 2 | 5 | 3 | Effects Soybean [6]: 0; Effects Wheat [23]: 2; Effects Large crabgrass [24]: 3; Effects Barnyardgrass [25]: 2; Effects Green foxtail [26]: 5; Effects Blackgrass [27]: 2; Effects Annual bluegrass [28]: 3; Effects Common lambsquarters [29]: 5; Effects Livid amaranth [30]: 5; Effects Velvetleaf [31]: 3; Effects Morning glory [32]: 5
CCC(=Cc1cccc(C(F)(F)F)c1)c1nc2cc(C#N)c(Cl)cc2o1 [I-c-143] | 5 | 5 | 1 | 3 | 5 | 1 | 5 | 4 | 5 | 4 | 5 | 5 | 5 | 5 | 5 | – | – | – | – | – | Effects Soybean [6]: 3
FC(F)(F)c1cccc(C=Cc2nc3ccccc3o2)c1 [I-c-1] | 3 | 3 | 1 | 1 | – | 0 | 5 | 5 | 5 | 5 | 5 | 5 | 5 | – | 1 | 2 | 2 | 1 | 5 | 3 | Effects Cyperus serotinus Rottb. [3]: 3; Effects Wheat [23]: 1; Effects Large crabgrass [24]: 3; Effects Barnyardgrass [25]: 1; Effects Green foxtail [26]: 3; Effects Blackgrass [27]: 1; Effects Annual bluegrass [28]: 1; Effects Common lambsquarters [29]: 3; Effects Livid amaranth [30]: 4; Effects Velvetleaf [31]: 2; Effects Morning glory [32]: 5
CCC(=Cc1cccc(C(F)(F)F)c1)c1nc2cc(C)ccc2o1 [I-c-76] | 4 | 3 | 1 | 3 | 0 | 0 | 5 | 4 | 5 | 5 | 5 | 5 | 5 | 5 | 1 | 2 | 3 | 2 | 5 | 4 | Effects Wheat [23]: 2; Effects Large crabgrass [24]: 4; Effects Barnyardgrass [25]: 2; Effects Green foxtail [26]: 4; Effects Blackgrass [27]: 2; Effects Annual bluegrass [28]: 2; Effects Common lambsquarters [29]: 4; Effects Livid amaranth [30]: 5; Effects Velvetleaf [31]: 3; Effects Morning glory [32]: 5
CCC(=Cc1cccc(C(F)(F)F)c1)c1nc2cc(F)ccc2o1 [I-c-42] | 5 | 5 | 1 | 5 | 5 | 0 | 5 | 5 | 5 | 5 | 5 | 5 | 5 | 5 | 3 | 3 | 3 | 2 | 5 | 4 | Effects Wheat [23]: 2; Effects Large crabgrass [24]: 4; Effects Barnyardgrass [25]: 2; Effects Green foxtail [26]: 4; Effects Blackgrass [27]: 3; Effects Annual bluegrass [28]: 3; Effects Common lambsquarters [29]: 5; Effects Livid amaranth [30]: 5; Effects Velvetleaf [31]: 3; Effects Morning glory [32]: 4
